Laboratory results taken from the supplement of paper PMC4862054.

Columns and labels:
Settings in all cases: incubation time: 72 h
CAL-120 = test: drug sensitivity score (DSS), CellTiter-Glo (DSS (AUC-based score)); higher = stronger drug effect (viability inhibition or cytotoxicity); extreme values may be limits of the assay
Method in brief: (§1)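 Breast cancer cell lines (20 µl suspension) were seeded into 384-well plates holding compound at 5 concentrations in 10-fold steps over a compound-specific 10,000-fold range, then incubated 72 h. CellTox Green fluorescence (485/520 nm) was read first, then CellTiter-Glo luminescence after 10 min at room temperature. Each plate was normalised to 0.1 % DMSO and a positive kill control. The drug sensitivity score was calculated from the area under the fitted dose-response curve.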

CAL-51 [1] = test: as above
Method in brief: as §1

CAL-148 [2] = test: as above
Method in brief: as §1

CAL-85-1 [3] = test: as above
Method in brief: as §1

MDA-MB-453 [4] = test: as above
Method in brief: as §1

MDA-MB-231 [5] = test: as above
Method in brief: as §1

DU-4475 [6] = test: as above
Method in brief: as §1

HCC1599 = test: as above
Method in brief: as §1

BT-474 = test: normalised viability (% of control), CellTiter-Blue; higher = more viable cells (about 100 = DMSO control)
Method in brief: (§2)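 Plates were quality-checked by Z'-factor and normalised to vehicle (100) and a positive kill control (0). The underlying assay incubated breast cancer cell lines for 72 h on 384-well plates with compound, then added 2.5 µl CellTiter-Blue for 2 h at 37 °C and read at 560/590 nm. The value is normalised viability at a single listed concentration of the series.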

CAL-51 [7] = test: as above
Method in brief: as §2

HCC1143 = test: as above
Method in brief: as §2

HDQ-P1 = test: as above
Method in brief: as §2

Hs578T = test: as above
Method in brief: as §2

HCC1937 = test: as above
Method in brief: as §2

CAL-148 [8] = test: as above
Method in brief: as §2

MFM-223 = test: as above
Method in brief: as §2

CAL-85-1 [9] = test: as above
Method in brief: as §2

MDA-MB-453 [10] = test: as above
Method in brief: as §2

BT-549 = test: as above
Method in brief: as §2

MDA-MB-231 [11] = test: as above
Method in brief: as §2

MDA-MB-468 = test: as above
Method in brief: as §2

DU-4475 [12] = test: as above
Method in brief: as §2

MDA-MB-436 = test: as above
Method in brief: as §2

SK-BR-3 = test: as above
Method in brief: as §2

Oc1ncc(N(CCCl)CCCl)c(O)n1 [Uracil mustard]
Settings | drug sensitivity score
CAL-51 [1] | 0
CAL-85-1 [3] | 0
CAL-120 | 0
CAL-148 [2] | 0
DU-4475 [6] | 0
HCC1599 | 0
MDA-MB-231 [5] | 0
MDA-MB-453 [4] | 0

normalised viability [%]
Settings | 3 nM | 10 nM | 30 nM | 100 nM | 1000 nM | 10000 nM
BT-474 | – | 122 | – | – | 120 | 116
BT-549 | – | 93.4 | – | – | 103 | 90.6
CAL-51 [7] | 96.7 | – | 96.7 | 95.7 | – | –
CAL-85-1 [9] | 94.2 | – | 94.2 | 96.7 | – | –
CAL-148 [8] | 85.3 | – | 97.1 | 101 | – | –
DU-4475 [12] | 92 | – | 89.5 | 101 | – | –
HCC1143 | – | 78.4 | – | – | 84.8 | 92.6
HCC1937 | – | 143 | – | – | 82.4 | 66.7
HDQ-P1 | 124 | – | 111 | 107 | – | –
Hs578T | – | 106 | – | – | 100 | 80.3
MDA-MB-231 [11] | – | 100 | – | – | 103 | 89.5
MDA-MB-436 | – | 103 | – | – | 76.6 | 97.8
MDA-MB-453 [10] | 103 | – | 107 | 101 | – | –
MDA-MB-468 | – | 109 | – | – | 97.5 | 85.7
MFM-223 | – | 99.2 | – | – | 95.9 | 99.8
SK-BR-3 | – | 109 | – | – | 95.1 | 79.8

CCCCC(=O)OCC(=O)[C@]1(O)Cc2c(O)c3c(c(O)c2[C@@H](O[C@H]2C[C@H](NC(=O)C(F)(F)F)[C@H](O)[C@H](C)O2)C1)C(=O)c1c(OC)cccc1C3=O [Valrubicin]
Settings | drug sensitivity score
CAL-51 [1] | 16.8
CAL-85-1 [3] | 4.91
CAL-120 | 0
CAL-148 [2] | 13.8
DU-4475 [6] | 11.5
HCC1599 | 2.29
MDA-MB-231 [5] | 3.05
MDA-MB-453 [4] | 2.44

normalised viability [%]
Settings | 3 nM | 10 nM | 30 nM | 100 nM | 1000 nM | 10000 nM
BT-474 | – | 114 | – | – | 74.9 | 55.1
BT-549 | – | 82.4 | – | – | 65.1 | 47.5
CAL-51 [7] | 93.1 | – | 80 | 55.3 | – | –
CAL-85-1 [9] | 80.8 | – | 81.8 | 81.5 | – | –
CAL-148 [8] | 90.9 | – | 72.9 | 60.1 | – | –
DU-4475 [12] | 90.1 | – | 55.4 | 49.8 | – | –
HCC1143 | – | 97.2 | – | – | 47.7 | 24.9
HCC1937 | – | 96.5 | – | – | 30.7 | 19.7
HDQ-P1 | 96.2 | – | 97.4 | 84.7 | – | –
Hs578T | – | 98.8 | – | – | 55.5 | 22
MDA-MB-231 [11] | – | 84.8 | – | – | 45.6 | 19.4
MDA-MB-436 | – | 111 | – | – | 84.9 | 42.8
MDA-MB-453 [10] | 104 | – | 93.2 | 99.3 | – | –
MDA-MB-468 | – | 105 | – | – | 42 | 30.6
MFM-223 | – | 92.1 | – | – | 72.6 | 24.2
SK-BR-3 | – | 91.3 | – | – | 25.9 | 9.82

CCCS(=O)(=O)Nc1ccc(F)c(C(=O)c2c[nH]c3ncc(-c4ccc(Cl)cc4)cc23)c1F [Vemurafenib]
Settings | drug sensitivity score
CAL-51 [1] | 2.75
CAL-85-1 [3] | 0.555
CAL-120 | 0
CAL-148 [2] | 0
DU-4475 [6] | 14.1
HCC1599 | 0
MDA-MB-231 [5] | 0
MDA-MB-453 [4] | 0

normalised viability [%]
Settings | 3 nM | 10 nM | 30 nM | 100 nM | 1000 nM | 10000 nM
BT-474 | – | 106 | – | – | 120 | 107
BT-549 | – | 96.4 | – | – | 105 | 57.3
CAL-51 [7] | 102 | – | 95.4 | 92.9 | – | –
CAL-85-1 [9] | 92.8 | – | 84.6 | 87.2 | – | –
CAL-148 [8] | 95.2 | – | 97.3 | 98.3 | – | –
DU-4475 [12] | 94.5 | – | 85.1 | 68.2 | – | –
HCC1143 | – | 95.8 | – | – | 102 | 87.4
HCC1937 | – | 109 | – | – | 101 | 67.7
HDQ-P1 | 92.9 | – | 105 | 106 | – | –
Hs578T | – | 112 | – | – | 129 | 45.9
MDA-MB-231 [11] | – | 91.5 | – | – | 92.4 | 100
MDA-MB-436 | – | 104 | – | – | 97.3 | 78.1
MDA-MB-453 [10] | 96.5 | – | 93.1 | 80.1 | – | –
MDA-MB-468 | – | 113 | – | – | 107 | 63.5
MFM-223 | – | 87.9 | – | – | 95.4 | 85.6
SK-BR-3 | – | 88.5 | – | – | 93.8 | 95
